Laboratory results reported in patent US12054498B2, “Heteroaromatic macrocyclic ether chemotherapeutic agents” (Nuvalent, Inc., priority 2020, dated 2024).

Tests used:
[1] = test system: TPM3-NTRK1-wt IC50 / primary target IC50 (e.g. CD74-ROS1-wt); test: TRKA selectivity in Ba/F3 cells (TRKA potency divided by primary target potency); assay type: cell-based; conditions: for TPM3-NTRK1-wt/CD74-ROS1-G2032R selectivity ratio: TRKA potency / CD74-ROS1-G2032R potency; for TPM3-NTRK1-wt/CD74-ROS1-wt selectivity ratio: TRKA potency / CD74-ROS1-wt potency; for TPM3-NTRK1-wt/EML4-ALK-L1196M-G1202R selectivity ratio: TRKA potency / EML4-ALK-L1196M-G1202R potency; for TPM3-NTRK1-wt/EML4-ALK-wt selectivity ratio: TRKA potency / EML4-ALK-wt potency
Method: TRKA selectivity was calculated by dividing a compound's TRKA potency by its primary target potency (e.g. TPM3-NTRK1-wt IC50/CD74-ROS1-wt IC50). Compound selectivity can be interpreted by binning ratio values: bin A for very high selectivity, ratio >30-fold; bin B for high selectivity, ratio >10-fold; bin C for moderate selectivity, ratio ≥1; and bin D for low selectivity, ratio <1. […] (nd=not determined).

[2] = target: T1, Ba/F3 cells CD74-ROS1 wild-type (wt) (Homo sapiens, UniProt P08922); test: Ba/F3 cell proliferation assay, CD74-ROS1 wild-type; assay type: cell-based; conditions: 72 hours, CellTiter-Glo
T1 construct: fusion of the C-terminus of ROS1 with the N-terminus of various partner proteins; host or cells: Ba/F3 (RIKEN), retroviral pMSCV-puro; the other entry of the earlier key: CD74 (P04233, HLA class II histocompatibility antigen gamma chain)
Outline: (§1)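 Cells were seeded 1 day, then exposed to a 3-fold compound dilution series for 72 hours. Viability was read by CellTiter-Glo luminescence; IC50 came from four-parameter logistic fitting of percent inhibition.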

[3] = target: T2, Ba/F3 cells EML4-ALK L1196M/G1202R (variant 1) (Homo sapiens, UniProt Q9UM73, G1202R/L1196M); test: Ba/F3 cell proliferation assay, EML4-ALK L1196M/G1202R (variant 1); assay type: cell-based; conditions: 72 hours, CellTiter-Glo
T2 construct: echinoderm microtubule-associated protein-like 4 (EML4) gene and the ALK tyrosine kinase domain; host or cells: Ba/F3 (RIKEN), retroviral pMSCV-puro; the other entry of the earlier key: EML4 (Q9HC35, Echinoderm microtubule-associated protein-like 4)
Outline: (§2)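 First, Ba/F3 cells were made IL-3-independent via retroviral fusion expression and puromycin selection, then cloned by single-cell dilution. Next, 1,000 cells/well were plated for a day, exposed to 3-fold diluted compounds for 72 hours, and lysed with CellTiter-Glo. Finally, IC50 was fitted by four-parameter logistic regression.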

ALK L1196M/G1202R = target: T3, ALK L1196M/G1202R (Homo sapiens, UniProt Q9UM73, G1202R/L1196M); test: Biochemical kinase assay, ALK L1196M/G1202R kinase domain; conditions: apparent inhibitory constant, Morrison equation; ATP 2 mM in substrate solution; read-out: ALK-L1196M-G1202R Ki^app
T3 construct: purchased SignalChem A19-12NG
Outline: (§3)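 Continuous fluorescence read (λ=485 nm, every 2 min, 120 min, 30° C). Substrate solution held 2 mM ATP and 26 μM AQT0101 (ROS1/ALK) or AQT0104 (TRKA). Kinase solution: ROS1-G2032R 0.5 nM, ROS1-wt 0.6 nM, TRKA 1 nM, ALK double mutant 3 nM. Initial linear rates fed a Morrison-equation fit giving Ki^app.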

ROS1-wt = target: T4, ROS1-wt (Homo sapiens, UniProt P08922); test: Biochemical kinase assay, ROS1-wt kinase domain; conditions: apparent inhibitory constant, Morrison equation; ATP 2 mM in substrate solution; read-out: ROS1-wt Ki^app
T4 construct: purchased Carna 08-163
Outline: (§4)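 Kinetic read: 485 nm, 2-min intervals, 120 min, 30 °C. Substrate mix — ATP 2 mM, AQT0101 26 μM, HEPES 50 mM pH 7.5, MgCl2 10 mM. Output: Ki^app, Morrison equation.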

Ba/F3 cells TPM3-TRKA = target: T5, Ba/F3 cells TPM3-TRKA (Homo sapiens, UniProt P04629); test: Ba/F3 cell proliferation assay, TPM3-TRKA; assay type: cell-based; conditions: 72 hours, CellTiter-Glo, read-out: TPM3-NTRK1-wt IC50
T5 construct: host or cells: Ba/F3 (RIKEN), retroviral pMSCV-puro; the other entry of the earlier key: TPM3 (P06753, Tropomyosin alpha-3 chain)
Outline: as §2

ROS1-G2032R = target: T6, ROS1-G2032R (Homo sapiens, UniProt P08922, G2032R); test: Biochemical kinase assay, ROS1-G2032R kinase domain; conditions: apparent inhibitory constant, Morrison equation; ATP 2 mM in substrate solution; read-out: ROS1-G2032R Ki^app
T6 construct: purchased SignalChem R14-12BG
Outline: as §4

TRKA-wt = target: T7, TRKA-wt (Homo sapiens, UniProt P04629); test: Biochemical kinase assay, TRKA-wt kinase domain; conditions: apparent inhibitory constant, Morrison equation; ATP 2 mM in substrate solution; read-out: TRKA-wt Ki^app
T7 construct: or TRKA-wt (1 nM, BPS Bio, 40280) kinase domains in buffer; purchased BPS Bio 40280
Outline: as §3

[4] = target: T8, Ba/F3 cells EML4-ALK wt (variant 1) (Homo sapiens, UniProt Q9UM73); test: Ba/F3 cell proliferation assay, EML4-ALK wt (variant 1); assay type: cell-based; conditions: 72 hours, CellTiter-Glo
T8 construct: echinoderm microtubule-associated protein-like 4 (EML4) gene and the ALK tyrosine kinase domain; host or cells: Ba/F3 (RIKEN), retroviral pMSCV-puro; the other entry of the earlier key: EML4 (Q9HC35, Echinoderm microtubule-associated protein-like 4)
Outline: as §2

[5] = target: T9, Ba/F3 cells CD74-ROS1 G2032R (Homo sapiens, UniProt P08922, G2032R); test: Ba/F3 cell proliferation assay, CD74-ROS1 G2032R; assay type: cell-based; conditions: 72 hours, CellTiter-Glo
T9 construct: fusion of the C-terminus of ROS1 with the N-terminus of various partner proteins; host or cells: Ba/F3 (RIKEN), retroviral pMSCV-puro; the other entry of the earlier key: CD74 (P04233, HLA class II histocompatibility antigen gamma chain)
Outline: as §1

ALK-wt = target: T10, ALK-wt (Homo sapiens, UniProt Q9UM73); test: Biochemical kinase assay, ALK-wt kinase domain; conditions: apparent inhibitory constant, Morrison equation; ATP 2 mM in substrate solution; read-out: ALK-wt Ki^app
T10 construct: purchased Carna 08-518
Outline: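 Compound in DMSO added first, then substrate solution (ATP 2 mM; AQT0101 or AQT0104, 26 μM; pH 7.5 HEPES, 10 mM MgCl2), then kinase solution with enzyme at 0.5–3 nM depending on construct. Kinetic read every 2 min for 120 min at 30° C; Ki^app by Morrison regression.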

T7 sequence (P04629 510-781 limits assumed): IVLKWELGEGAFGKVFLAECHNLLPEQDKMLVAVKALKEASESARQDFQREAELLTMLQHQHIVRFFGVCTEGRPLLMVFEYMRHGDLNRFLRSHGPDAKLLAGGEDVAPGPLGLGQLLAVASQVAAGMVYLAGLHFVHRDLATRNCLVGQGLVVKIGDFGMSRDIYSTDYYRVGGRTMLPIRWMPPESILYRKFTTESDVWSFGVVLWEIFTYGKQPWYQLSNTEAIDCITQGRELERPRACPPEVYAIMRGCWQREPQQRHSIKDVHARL
T10 sequence (Q9UM73 1116-1392 limits assumed): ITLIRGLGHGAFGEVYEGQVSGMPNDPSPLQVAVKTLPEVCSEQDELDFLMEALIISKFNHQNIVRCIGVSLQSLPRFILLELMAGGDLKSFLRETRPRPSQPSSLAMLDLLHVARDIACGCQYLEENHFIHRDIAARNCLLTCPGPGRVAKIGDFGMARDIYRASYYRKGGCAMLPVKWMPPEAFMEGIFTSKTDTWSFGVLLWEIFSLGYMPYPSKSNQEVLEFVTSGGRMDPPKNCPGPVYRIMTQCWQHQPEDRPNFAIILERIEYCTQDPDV
T1 sequence (P08922 1883-2347 limits assumed): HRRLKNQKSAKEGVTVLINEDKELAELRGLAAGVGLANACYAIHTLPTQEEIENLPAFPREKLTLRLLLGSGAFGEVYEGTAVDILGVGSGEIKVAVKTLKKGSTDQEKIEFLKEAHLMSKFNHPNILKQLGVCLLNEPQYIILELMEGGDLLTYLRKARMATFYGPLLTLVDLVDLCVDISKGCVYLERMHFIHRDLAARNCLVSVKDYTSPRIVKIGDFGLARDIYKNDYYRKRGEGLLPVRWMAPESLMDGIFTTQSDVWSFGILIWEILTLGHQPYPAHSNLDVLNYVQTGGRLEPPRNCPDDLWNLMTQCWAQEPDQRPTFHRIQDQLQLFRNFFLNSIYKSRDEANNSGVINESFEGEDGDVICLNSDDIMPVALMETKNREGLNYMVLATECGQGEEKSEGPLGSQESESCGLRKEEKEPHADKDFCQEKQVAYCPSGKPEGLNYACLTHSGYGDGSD
T9 sequence (P08922 1883-2347 G2032R limits assumed): as the sequence (P08922 1883-2347 limits assumed) above, with G150R counted along it
T4 sequence (P08922 1945-2222 limits assumed): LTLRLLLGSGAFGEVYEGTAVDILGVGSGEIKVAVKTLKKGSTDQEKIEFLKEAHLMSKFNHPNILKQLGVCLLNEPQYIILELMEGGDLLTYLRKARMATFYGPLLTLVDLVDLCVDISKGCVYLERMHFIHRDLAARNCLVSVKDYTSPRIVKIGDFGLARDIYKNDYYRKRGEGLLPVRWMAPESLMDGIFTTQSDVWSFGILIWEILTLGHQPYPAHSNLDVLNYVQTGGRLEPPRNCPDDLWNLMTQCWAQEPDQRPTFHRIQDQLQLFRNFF
T3 sequence (Q9UM73 1116-1392 L1196M/G1202R limits assumed): as the sequence (Q9UM73 1116-1392 limits assumed) above, with L81M, G87R counted along it
T8 sequence (Q9UM73 with tags, fused parts or gaps): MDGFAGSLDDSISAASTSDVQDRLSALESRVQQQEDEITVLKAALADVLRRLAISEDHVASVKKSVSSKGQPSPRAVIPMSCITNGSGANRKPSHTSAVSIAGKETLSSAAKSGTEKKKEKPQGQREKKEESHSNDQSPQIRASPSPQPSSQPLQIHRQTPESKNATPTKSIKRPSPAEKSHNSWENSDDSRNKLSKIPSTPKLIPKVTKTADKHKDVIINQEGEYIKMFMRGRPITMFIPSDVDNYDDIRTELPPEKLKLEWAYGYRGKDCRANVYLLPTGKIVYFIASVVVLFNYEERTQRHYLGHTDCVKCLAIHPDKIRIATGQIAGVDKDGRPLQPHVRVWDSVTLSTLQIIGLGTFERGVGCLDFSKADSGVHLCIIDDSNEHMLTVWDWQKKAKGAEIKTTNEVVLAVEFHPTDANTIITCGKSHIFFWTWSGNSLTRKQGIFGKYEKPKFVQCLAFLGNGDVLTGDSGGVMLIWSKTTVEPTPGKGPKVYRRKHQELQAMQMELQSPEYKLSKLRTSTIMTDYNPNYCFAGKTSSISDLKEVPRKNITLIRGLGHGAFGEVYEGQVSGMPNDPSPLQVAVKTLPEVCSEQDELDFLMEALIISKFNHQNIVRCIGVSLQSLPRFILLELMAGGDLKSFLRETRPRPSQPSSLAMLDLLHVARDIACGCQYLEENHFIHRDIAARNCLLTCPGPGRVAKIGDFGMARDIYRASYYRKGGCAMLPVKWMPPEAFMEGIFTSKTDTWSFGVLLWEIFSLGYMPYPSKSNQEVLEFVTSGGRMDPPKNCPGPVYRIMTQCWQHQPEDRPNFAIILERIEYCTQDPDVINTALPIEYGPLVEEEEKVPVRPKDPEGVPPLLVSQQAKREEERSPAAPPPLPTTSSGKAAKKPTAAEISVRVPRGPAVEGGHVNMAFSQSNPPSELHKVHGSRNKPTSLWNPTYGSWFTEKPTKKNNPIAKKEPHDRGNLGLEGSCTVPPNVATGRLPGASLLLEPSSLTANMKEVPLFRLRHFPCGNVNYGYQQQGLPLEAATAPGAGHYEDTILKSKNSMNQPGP
T6 sequence (P08922 1945-2222 G2032R limits assumed): as the sequence (P08922 1945-2222 limits assumed) above, with G88R counted along it
T5 sequence (P04629 510-796 limits assumed): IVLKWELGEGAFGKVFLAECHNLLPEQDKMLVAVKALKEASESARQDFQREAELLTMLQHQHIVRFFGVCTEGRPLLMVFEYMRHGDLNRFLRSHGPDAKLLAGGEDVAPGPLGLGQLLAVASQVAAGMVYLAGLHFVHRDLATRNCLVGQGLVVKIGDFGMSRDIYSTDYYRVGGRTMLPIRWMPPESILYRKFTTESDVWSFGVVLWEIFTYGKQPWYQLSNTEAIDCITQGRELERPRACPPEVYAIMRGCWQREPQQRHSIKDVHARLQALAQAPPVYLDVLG
T2 sequence (Q9UM73 with tags, fused parts or gaps L1196M/G1202R): as the sequence (Q9UM73 with tags, fused parts or gaps) above, with L635M, G641R counted along it

| SMILES | TPM3-NTRK1-wt/CD74-ROS1-G2032R selectivity ratio [1] | TPM3-NTRK1-wt/CD74-ROS1-wt selectivity ratio [1] | TPM3-NTRK1-wt/EML4-ALK-L1196M-G1202R selectivity ratio [1] | TPM3-NTRK1-wt/EML4-ALK-wt selectivity ratio [1] | IC50 [2] [nM] | IC50 [3] [nM] | Ki (ALK L1196M/G1202R) [nM] | Ki (ROS1-wt) [nM] | IC50 (Ba/F3 cells TPM3-TRKA) [nM] | Ki (ROS1-G2032R) [nM] | Ki (TRKA-wt) [nM] | IC50 [4] [nM] | IC50 [5] [nM] | Ki (ALK-wt) [nM] |
| --- | --- | --- | --- | --- | --- | --- | --- | --- | --- | --- | --- | --- | --- | --- |
| C[C@H]1Oc2cc(cnc2N)-c2c(C#N)noc2Cc2nn(C)nc2-c2ccc(F)cc21 [Example 25, (19R)-22-amino-16-fluoro-10,19-dimethyl-5,20-dioxa-4,9,10,11,23-pentaazapentacyclo[19.3,1.0^2,^6.0^8,^12.0^13,^18]pentacosa-1(24),2(6),3,8,11,13,15,17,21(25),22-decaene-3-carbonitrile] | A (bin A for very high selectivity, ratio >30-fold) | A (bin A for very high selectivity, ratio >30-fold) | C (bin C for moderate selectivity, ratio ≥1) | A (bin A for very high selectivity, ratio >30-fold) | 0.1 to 50 | > 500 | 50 to 500 | < 50 | > 500 | 50 to 500 | > 500 | 50 to 500 | 0.1 to 50 | < 50 |
| C[C@H]1Oc2cc(cnc2N)-c2c(C3CCC3)noc2Cc2nn(C)nc2-c2ccc(F)cc21 [Example 26, (19R)-3-cyclobutyl-16-fluoro-10,19-dimethyl-5,20-dioxa-4,9,10,11,23-pentaazapentacyclo[19.3.1.0^2,^6.0^8,^12.0^13,^18]pentacosa-1(24),2(6),3,8,11,13,15,1 7,21(25),22-decaen-22-amine] | A (bin A for very high selectivity, ratio >30-fold) | A (bin A for very high selectivity, ratio >30-fold) | C (bin C for moderate selectivity, ratio ≥1) | A (bin A for very high selectivity, ratio >30-fold) | 0.1 to 50 | 0.1 to 50 | < 50 | < 50 | 50 to 500 | < 50 | > 500 | 0.1 to 50 | 0.1 to 50 | < 50 |
| CCn1nc(Cl)c2c1-c1cnc(N)c(c1)O[C@H](C)c1cc(F)ccc1-c1nn(C)nc1C2 [Example 28, (19R)-5-chloro-3ethyl-16-fluoro-10,19-dimethyl-20-oxa-3,4,9,10,11,23-hexaazapentacyclo[19.3.1.0^2,^6.0^8,^12.0^13,^18]pentacosa-1(24),2(6),4,8,11,13,15,17,21(25),22-decaen-22-amine] | A (bin A for very high selectivity, ratio >30-fold) | A (bin A for very high selectivity, ratio >30-fold) | C (bin C for moderate selectivity, ratio ≥1) | B (bin B for high selectivity, ratio >10-fold) | 0.1 to 50 | 50 to 500 | < 50 | < 50 | 50 to 500 | < 50 | > 500 | 0.1 to 50 | 0.1 to 50 | < 50 |
| CCn1nc(C)c2c1-c1cnc(N)c(c1)O[C@H](C)c1cc(F)ccc1-c1nn(C)nc1C2 [Example 29, (19R)-3-ethyl-16-fluoro-5,10,19-trimethyl-20-oxa-3,4,9,10,11,23-hexaazapentacyclo[19.3.1.0^2,^6.0^8,^12.0^13,^18]pentacosa-1(24),2(6),4,8,11,13,15,17,21(25),22-decaen-22-amine] | A (bin A for very high selectivity, ratio >30-fold) | A (bin A for very high selectivity, ratio >30-fold) | C (bin C for moderate selectivity, ratio ≥1) | A (bin A for very high selectivity, ratio >30-fold) | 0.1 to 50 | 0.1 to 50 | < 50 | < 50 | 50 to 500 | < 50 | 50 to 500 | 0.1 to 50 | 0.1 to 50 | < 50 |
| C[C@H]1Oc2cc(cnc2N)-c2c(C3CCC3)nnn2Cc2nn(C)nc2-c2ccc(F)cc21 [Example 30, (19R)-3-cyclobutyl-16-fluoro-10,19-dimethyl-20-oxa-4,5,6,9,10,11,23-heptaazapentacyclo[19.3.1.0^2,^6.0^8,^12.0^13,^18]pentacosa-1(24),2,4,8,11,13,15,17,21(25),22-decaen-22-amine] | A (bin A for very high selectivity, ratio >30-fold) | A (bin A for very high selectivity, ratio >30-fold) | C (bin C for moderate selectivity, ratio ≥1) | A (bin A for very high selectivity, ratio >30-fold) | 0.1 to 50 | 50 to 500 | < 50 | < 50 | > 500 | < 50 | > 500 | 0.1 to 50 | 0.1 to 50 | < 50 |
